Assay results: PubChem BioAssay (NCI)
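Results reflect a 48-hour exposure of cells in 96-well plates to compound at five concentrations. TGI is the concentration that stops growth completely.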

Assays:
Assay in all cases: NCI tumour cell line growth inhibition, 48 h
[1] = system: CCRF-CEM leukemia
[2] = system: IGROV1 ovarian
[3] = system: RPMI-8226 leukemia
[4] = system: MDA-MB-231 breast
[5] = system: SF-295 CNS
[6] = system: UACC-62 melanoma
[7] = system: SNB-19 CNS
[8] = system: SK-MEL-5 melanoma
[9] = system: MALME-3M melanoma
[10] = system: SN12C renal
[11] = system: OVCAR-3 ovarian
[12] = system: HOP-92 NSCLC
[13] = system: A549 NSCLC
[14] = system: NCI-H23 lung
[15] = system: M14 melanoma
[16] = system: PC-3 prostate
[17] = system: NCI/ADR-RES ovarian
[18] = system: COLO 205 colon
[19] = system: HCT-15 colon
[20] = system: MDA-N
[21] = system: OVCAR-4 ovarian
[22] = system: NCI-H460 lung
[23] = system: TK-10 renal
[24] = system: CAKI-1 renal
[25] = system: MOLT-4 leukemia
[26] = system: T-47D breast
[27] = system: MCF7 breast
[28] = system: SK-MEL-2 melanoma
[29] = system: EKVX NSCLC
[30] = system: ACHN renal
[31] = system: U251 CNS
[32] = system: SF-268 CNS
[33] = system: K-562 leukemia
[34] = system: RXF 393 renal
[35] = system: SK-OV-3 ovarian
[36] = system: SF-539 CNS
[37] = system: UO-31 renal
[38] = system: UACC-257 melanoma
[39] = system: NCI-H226 lung
[40] = system: OVCAR-8 ovarian
[41] = system: HCT-116 colon
[42] = system: HL-60(TB) leukemia
[43] = system: HT29 colon
[44] = system: SNB-75 CNS
[45] = system: A498 renal
[46] = system: OVCAR-5 ovarian
[47] = system: KM12 colon
[48] = system: LOX IMVI melanoma
[49] = system: BT-549 breast
[50] = system: SK-MEL-28 melanoma
[51] = system: SW-620 colon
[52] = system: HOP-62 NSCLC
[53] = system: HS 578T breast
[54] = system: HCC-2998 colon
[55] = system: MDA-MB-435
[56] = system: DU-145 prostate
[57] = system: NCI-H522 lung
[58] = system: 786-0 renal

Measured: TGI

CN1C(=O)C(O)CC1c1ccc(C(F)(F)F)cc1 (stereo not drawn)
> 100 µM: [1] | [2] | [3] | [4] | [5] | [6] | [7] | [8] | [9] | [10] | [11] | [12] | [13] | [14] | [15] | [16] | [17] | [18] | [19] | [20] | [21] | [22] | [23] | [24] | [25] | [26] | [27] | [28] | [29] | [30] | [31] | [32] | [33] | [34] | [35] | [36] | [37] | [38] | [39] | [40] | [41] | [42] | [43] | [44] | [45] | [46] | [47] | [48] | [49] | [50] | [51] | [52] | [53] | [54] | [55] | [56] | [57] | [58]
